# Source: PubChem BioAssay AID248 (DTP/NCI, 2004)
# “And” between values parts separate entries of the source, which are not always exact repeats. Equal entries are not always repeated. Toxic doses and inconclusive results are not listed.
# Test system: L1210 leukemia ip in BDF1 mice, survival T/C
# Test: NCI In Vivo Anticancer Drug Screen. Data for tumor model L1210 Leukemia (intraperitoneal) in B6D2F1 (BDF1) mice
# Settings: endpoint: mean survival time, higher = longer survival
# How it was run: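 Ratio derived from survival: compound-dosed mice over vehicle-dosed mice, all bearing a transplantable tumor.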
# [1] = dose: 100.0 mg/kg/injection, schedule: Q01DX009 (ip), vehicle: Klucel (hydroxypropylcellulose) (HPC)
# [2] = dose: 200.0 mg/kg/injection, schedule: Q01DX009 (ip), vehicle: Klucel (hydroxypropylcellulose) (HPC)
# [3] = dose: 100.0 mg/kg/injection, schedule: Q04DX002 (ip), vehicle: Klucel (hydroxypropylcellulose) (HPC)
# [4] = dose: 200.0 mg/kg/injection, schedule: Q04DX002 (ip), vehicle: Klucel (hydroxypropylcellulose) (HPC)
# [5] = dose: 400.0 mg/kg/injection, schedule: Q04DX002 (ip), vehicle: Klucel (hydroxypropylcellulose) (HPC)
# [6] = dose: 100.0 mg/kg/injection, schedule: Q04DX003 (ip), vehicle: saline with Tween-80
# [7] = dose: 200.0 mg/kg/injection, schedule: Q04DX003 (ip), vehicle: saline with Tween-80
# [8] = dose: 400.0 mg/kg/injection, schedule: Q04DX003 (ip), vehicle: saline with Tween-80
# [9] = dose: 25.0 mg/kg/injection, schedule: Q04DX003 (ip), vehicle: saline
# [10] = dose: 50.0 mg/kg/injection, schedule: Q04DX003 (ip), vehicle: saline
smiles,measurement,setting,value
OCC1OC(n2cnc3c2ncn2ccnc32)C(O)C1O (centres undefined),T/C,"dose: 6.25 mg/kg/injection, schedule: Q03HX024 (ip), vehicle: saline",98 % of control
same,T/C,"dose: 12.5 mg/kg/injection, schedule: Q03HX024 (ip), vehicle: saline",93 % of control
same,T/C,"dose: 12.5 mg/kg/injection, schedule: Q04DX002 (ip), vehicle: saline",93 % of control
same,T/C,"dose: 25.0 mg/kg/injection, schedule: Q03HX024 (ip), vehicle: saline",95 % of control
same,T/C,"dose: 25.0 mg/kg/injection, schedule: Q04DX002 (ip), vehicle: saline",97 % of control
same,T/C,"dose: 50.0 mg/kg/injection, schedule: Q03HX024 (ip), vehicle: saline",92 % of control
same,T/C,"dose: 50.0 mg/kg/injection, schedule: Q04DX002 (ip), vehicle: saline",179 % of control
same,T/C,"dose: 100.0 mg/kg/injection, schedule: Q01DX005 (ip), vehicle: saline",101 % of control
same,T/C,"dose: 100.0 mg/kg/injection, schedule: Q01DX009 (ip), vehicle: saline",107 % of control
same,T/C,"dose: 100.0 mg/kg/injection, schedule: Q03HX024 (ip), vehicle: saline",87 % of control
same,T/C,"dose: 200.0 mg/kg/injection, schedule: Q01DX005 (ip), vehicle: saline",107 % of control
same,T/C,"dose: 200.0 mg/kg/injection, schedule: Q01DX009 (ip), vehicle: saline",89 % of control
same,T/C,"dose: 200.0 mg/kg/injection, schedule: Q03HX024 (ip), vehicle: saline",88 % of control
same,T/C,"dose: 400.0 mg/kg/injection, schedule: Q01DX009 (ip), vehicle: saline",104 % of control
CCCCCCCCCCCC(=O)SCCSC(=O)CCCCCCCCCCC,T/C,"dose: 100.0 mg/kg/injection, schedule: Q04DX002 (ip), vehicle: other",94 % of control and 104 % of control
same,T/C,"dose: 100.0 mg/kg/injection, schedule: Q04DX003 (ip), vehicle: other",86 % of control and 89 % of control
same,T/C,"dose: 200.0 mg/kg/injection, schedule: Q04DX002 (ip), vehicle: other",113 % of control and 90 % of control
same,T/C,"dose: 200.0 mg/kg/injection, schedule: Q04DX003 (ip), vehicle: other",96 % of control and 89 % of control
same,T/C,"dose: 400.0 mg/kg/injection, schedule: Q04DX002 (ip), vehicle: other",103 % of control and 109 % of control
same,T/C,"dose: 400.0 mg/kg/injection, schedule: Q04DX003 (ip), vehicle: other",89 % of control and 92 % of control
Cc1ccc(C(=O)C2CC=CCC2C(=O)c2ccc(C)cc2)cc1 (centres undefined),T/C,"dose: 50.0 mg/kg/injection, schedule: Q01DX009 (ip), vehicle: Klucel (hydroxypropylcellulose) (HPC)",97 % of control
same,T/C,[1],91 % of control
same,T/C,[2],92 % of control
same,T/C,"dose: 400.0 mg/kg/injection, schedule: Q01DX009 (ip), vehicle: Klucel (hydroxypropylcellulose) (HPC)",90 % of control
Brc1ccc(N=Cc2ccc3c(c2)OCO3)cc1,T/C,"dose: 100.0 mg/kg/injection, schedule: Q04DX003 (ip), vehicle: gum acacia",96 % of control
same,T/C,"dose: 200.0 mg/kg/injection, schedule: Q04DX003 (ip), vehicle: gum acacia",95 % of control
same,T/C,"dose: 400.0 mg/kg/injection, schedule: Q04DX003 (ip), vehicle: gum acacia",90 % of control
COc1cc(/C=C2\NC(=O)NC2=O)ccc1O,T/C,"dose: 200.0 mg/kg/injection, schedule: Q01DX009 (ip), vehicle: saline with Tween-80",86 % of control
same,T/C,"dose: 400.0 mg/kg/injection, schedule: Q01DX009 (ip), vehicle: saline with Tween-80",90 % of control
Nc1ccc(C(=O)NCC(=O)O)cc1,T/C,[3],93 % of control
same,T/C,[4],104 % of control
same,T/C,[5],100 % of control
O=C(/C=C/c1ccccc1)NC(=S)Nc1nccs1,T/C,"dose: 100.0 mg/kg/injection, schedule: Q01DX009 (ip), vehicle: carboxymethylcellulose (CMC)",100 % of control and 104 % of control
same,T/C,"dose: 100.0 mg/kg/injection, schedule: Q04DX002 (ip), vehicle: carboxymethylcellulose (CMC)",97 % of control and 103 % of control
same,T/C,"dose: 100.0 mg/kg/injection, schedule: Q04DX003 (ip), vehicle: carboxymethylcellulose (CMC)",100 % of control
same,T/C,"dose: 200.0 mg/kg/injection, schedule: Q01DX009 (ip), vehicle: carboxymethylcellulose (CMC)",100 % of control and 111 % of control
same,T/C,"dose: 200.0 mg/kg/injection, schedule: Q04DX002 (ip), vehicle: carboxymethylcellulose (CMC)",99 % of control and 103 % of control
same,T/C,"dose: 200.0 mg/kg/injection, schedule: Q04DX003 (ip), vehicle: carboxymethylcellulose (CMC)",96 % of control
same,T/C,"dose: 400.0 mg/kg/injection, schedule: Q01DX009 (ip), vehicle: carboxymethylcellulose (CMC)",96 % of control and 102 % of control
same,T/C,"dose: 400.0 mg/kg/injection, schedule: Q04DX002 (ip), vehicle: carboxymethylcellulose (CMC)",103 % of control and 87 % of control
same,T/C,"dose: 400.0 mg/kg/injection, schedule: Q04DX003 (ip), vehicle: carboxymethylcellulose (CMC)",93 % of control
COC(=O)CNc1cccc([N+](=O)[O-])c1,T/C,"dose: 100.0 mg/kg/injection, schedule: Q04DX003 (ip), vehicle: Klucel (hydroxypropylcellulose) (HPC)",95 % of control
same,T/C,"dose: 200.0 mg/kg/injection, schedule: Q04DX003 (ip), vehicle: Klucel (hydroxypropylcellulose) (HPC)",102 % of control
same,T/C,"dose: 400.0 mg/kg/injection, schedule: Q04DX003 (ip), vehicle: Klucel (hydroxypropylcellulose) (HPC)",101 % of control
Clc1ccccc1N=C1NN(c2c3ccccc3nc3ccccc23)Nc2ccccc21,T/C,"dose: 100.0 mg/kg/injection, schedule: Q04DX003 (ip), vehicle: acetone",94 % of control
same,T/C,"dose: 200.0 mg/kg/injection, schedule: Q04DX003 (ip), vehicle: acetone",90 % of control
same,T/C,"dose: 400.0 mg/kg/injection, schedule: Q04DX003 (ip), vehicle: acetone",87 % of control
Brc1cc(Br)c2[nH]c3c(Br)cc(Br)cc3c2c1,T/C,[1],101 % of control
same,T/C,[2],102 % of control
O=S(=O)(F)c1cc(Cl)c(O)c(S(=O)(=O)F)c1,T/C,[1],101 % of control
Clc1ccc(/C=N/Nc2nc3ccccc3s2)c(Cl)c1,T/C,[6],93 % of control
same,T/C,"dose: 111.0 mg/kg/injection, schedule: Q01DX Z (ip), vehicle: methylcellulose (MC)",105 % of control
same,T/C,"dose: 166.0 mg/kg/injection, schedule: Q01DX Z (ip), vehicle: methylcellulose (MC)",98 % of control
same,T/C,[7],93 % of control
same,T/C,"dose: 250.0 mg/kg/injection, schedule: Q01DX Z (ip), vehicle: methylcellulose (MC)",103 % of control
same,T/C,[8],93 % of control
O=C(OCCCl)c1ccc([N+](=O)[O-])cc1,T/C,[6],95 % of control
same,T/C,[7],95 % of control
same,T/C,[8],102 % of control
CN(C)C1CC1c1ccccc1 (centres undefined),T/C,"dose: 6.25 mg/kg/injection, schedule: Q01DX009 (ip), vehicle: saline",106 % of control
same,T/C,"dose: 12.5 mg/kg/injection, schedule: Q01DX009 (ip), vehicle: saline",95 % of control
same,T/C,"dose: 25.0 mg/kg/injection, schedule: Q01DX009 (ip), vehicle: saline",95 % of control
same,T/C,[9],100 % of control
same,T/C,"dose: 50.0 mg/kg/injection, schedule: Q01DX009 (ip), vehicle: saline",106 % of control
same,T/C,[10],100 % of control
same,T/C,"dose: 100.0 mg/kg/injection, schedule: Q04DX003 (ip), vehicle: saline",100 % of control
Nc1ccc(S(=O)(=O)NCc2nccs2)cc1,T/C,"dose: 5.0 mg/kg/injection, schedule: Q01DX001 (ip), vehicle: saline",102 % of control
same,T/C,"dose: 10.0 mg/kg/injection, schedule: Q01DX001 (ip), vehicle: saline",100 % of control
same,T/C,"dose: 20.0 mg/kg/injection, schedule: Q01DX001 (ip), vehicle: saline",100 % of control
same,T/C,"dose: 40.0 mg/kg/injection, schedule: Q01DX001 (ip), vehicle: saline",102 % of control
same,T/C,"dose: 80.0 mg/kg/injection, schedule: Q01DX001 (ip), vehicle: saline",100 % of control
CCOC(=S)SCC(=O)c1cccc([N+](=O)[O-])c1,T/C,"dose: 100.0 mg/kg/injection, schedule: Q01DX001 (ip), vehicle: saline",107 % of control
same,T/C,"dose: 200.0 mg/kg/injection, schedule: Q01DX001 (ip), vehicle: saline",103 % of control
same,T/C,"dose: 400.0 mg/kg/injection, schedule: Q01DX001 (ip), vehicle: saline",101 % of control
COc1ccc2c(C(=O)N(CCCl)CCCl)cc3cc(OC)c(OC)cc3c2c1,T/C,[9],116 % of control
same,T/C,[10],102 % of control
CSc1nc2c(c(=O)[nH]1)C1C=C(C)CCC1C(C)(C)C2 (centres undefined),T/C,[3],98 % of control
same,T/C,[4],96 % of control
O=C(CCN1C(=O)c2ccccc2C1=O)c1ccc(O)cc1,T/C,"dose: 6.25 mg/kg/injection, schedule: Q01DX009 (ip), vehicle: saline with Tween-80",97 % of control
same,T/C,"dose: 12.5 mg/kg/injection, schedule: Q01DX009 (ip), vehicle: saline with Tween-80",98 % of control
same,T/C,"dose: 25.0 mg/kg/injection, schedule: Q01DX009 (ip), vehicle: saline with Tween-80",91 % of control
NC(=O)NNc1ccccc1,T/C,[3],94 % of control
same,T/C,[4],94 % of control
same,T/C,[5],90 % of control
